Data set [1] is described as follows: Metabolic stability in mouse liver microsomes assessed as compound remaining after 30 mins. The class given is ADME, Microsome. To be noted: read-out: Stability. For orientation: Microsomes from liver hold many membrane-bound enzymes, among them those of drug oxidation.
The nature of data set [2]: Metabolic stability in rat liver microsomes assessed as compound remaining after 30 mins. The class given is ADME, Microsome. Conditions: read-out: Stability.
Data set [3] in a line: Metabolic stability in human liver microsomes assessed as compound remaining after 30 mins. The class given is ADME, Microsome. Conditions: read-out: Stability.
The nature of data set [4]: Drug level in Sprague-Dawley rat cerebrospinal fluid at 10 mg/kg, po after 2 hrs. Conditions: read-out: Drug uptake. The class given is ADME, organism-based. The arrangement: dose 10 mg/kg, route oral.
A short description of data set [5]: AUC (0 to infinity) in diet-induced obese C57BL/6J mouse at 30 mg/kg, po. The class given is ADME, organism-based. The arrangement: time infinity, dose 30 mg/kg, route oral. To be noted: plasma.
Data set [6] can be described thus: Cmax in diet-induced obese C57BL/6J mouse at 30 mg/kg, po. Details: dose 30 mg/kg, route oral. The class given is ADME, organism-based. Conditions: in vivo.
The nature of data set [7]: Volume of distribution at steady state in Sprague-Dawley rat at 1 mg/kg, iv. The class given is ADME, organism-based. To be noted: in vivo, read-out: Vdss. The arrangement: dose 1 mg/kg, route intravenous.
Data set [8] is described as follows: Ratio of drug level in brain to plasma of Sprague-Dawley rat at 10 mg/kg, po after 2 hrs. The class given is ADME, organism-based. Details: dose 10 mg/kg, route oral.
The nature of data set [9]: AUC (0 to infinity) in diet-induced obese C57BL/6J mouse at 10 mg/kg, po. To be noted: plasma. The class given is ADME, organism-based. Details: time infinity, dose 10 mg/kg, route oral.
The nature of data set [10]: Plasma concentration in Sprague-Dawley rat at 10 mg/kg, po after 2 hrs. Details: dose 10 mg/kg, route oral. The class given is ADME, organism-based.
The nature of data set [11]: Cmax in Sprague-Dawley rat at 3 mg/kg, po. The class given is ADME, organism-based. Details: dose 3 mg/kg, route oral. Conditions: in vivo.
The test system of the next data set is Rattus norvegicus. The experiment in a line: AUC (0 to infinity) in Sprague-Dawley rat at 3 mg/kg, po. The class given is ADME, organism-based, Plasma. Details: time infinity, dose 3 mg/kg, route oral. Conditions: in vivo.
Data set [12] in a line: Half life in Sprague-Dawley rat at 1 mg/kg, iv. The class given is ADME, organism-based. The arrangement: dose 1 mg/kg, route intravenous. To be noted: in vivo.
Data set [13] can be described thus: Tmax in diet-induced obese C57BL/6J mouse at 30 mg/kg, po. The class given is ADME, organism-based. The arrangement: dose 30 mg/kg, route oral. To be noted: in vivo.
Data set [14] deals with Brain. The experiment in a line: Drug level in diet-induced obese C57BL/6J mouse brain at 30 mg/kg, po after 24 hrs. The class given is ADME, organism-based. The arrangement: dose 30 mg/kg, route oral. To be noted: in vivo.
A short description of data set [15]: Plasma clearance in Sprague-Dawley rat at 1 mg/kg, iv. The arrangement: dose 1 mg/kg, route intravenous. The class given is ADME, organism-based.
Data set [16] deals with Brain. Briefly: Drug level in Sprague-Dawley rat brain at 10 mg/kg, po after 2 hrs. The class given is ADME, organism-based. Details: dose 10 mg/kg, route oral. Conditions: in vivo.
A short description of data set [17]: Tmax in diet-induced obese C57BL/6J mouse at 10 mg/kg, po. The class given is ADME, organism-based. The arrangement: dose 10 mg/kg, route oral. To be noted: in vivo.
The nature of data set [18]: Oral bioavailability in Sprague-Dawley rat. The class given is ADME, organism-based. To be noted: in vivo.
A short description of data set [19]: Plasma concentration in diet-induced obese C57BL/6J mouse at 30 mg/kg, po after 24 hrs. The class given is ADME, organism-based. The arrangement: dose 30 mg/kg, route oral.
Data set [20] can be described thus: Cmax in diet-induced obese C57BL/6J mouse at 10 mg/kg, po. The class given is ADME, organism-based. The arrangement: dose 10 mg/kg, route oral. To be noted: in vivo.
A short description of data set [21]: Ratio of drug level in brain to plasma of diet-induced obese C57BL/6J mouse at 30 mg/kg, po after 24 hrs. The class given is ADME, organism-based. Details: dose 30 mg/kg, route oral.

Each structure is given as a SMILES string.

Take `O=C(C(c1ccc(F)c(F)c1)n1cccn1)N(CCF)CCCN1CCC2(CC1)OCc1cc(F)ncc12` (centres undefined): the figures for the remaining at 0.5 h in data set [1], in data set [2] and in data set [3] were 22%, 31% and 12%, respectively.

For `CCO/N=C(/c1ccc(F)c(F)c1)c1ccc(CN2CCC3(CC2)OCc2cc(F)ncc23)cn1`, the remaining at 0.5 h in data set [1] came to 11%; in data set [2], 2%; in [3], 0%.

Broadly, the AUC(0-inf) is total exposure, with the tail of the curve extrapolated. A higher AUC(0-inf) goes with more exposure. Broadly, the Cmax is the maximum level reached in the sampled fluid or tissue. The term Kp denotes the ratio of the level in a tissue or fluid to that in plasma or blood. Broadly, the AUC is the area under the concentration-time curve, a measure of exposure. Read a low AUC as less exposure. One may read the half-life as the time needed for the level to fall by half in the phase considered. Read a high half-life as slow decline. By Tmax is commonly meant the time at which the peak concentration occurs. As a reminder, the clearance is a measure of how efficiently the substance is removed, as volume per time. A high value points to efficient removal. As a reminder, the bioavailability is the share of a dose that reaches the circulation, judged against a reference dose that is usually intravenous. Read a low bioavailability as poor availability. In the case of `CCO/N=C(/c1ccc(F)c(F)c1)c1ccc(CN2CCC3(CC2)OCc2cn(C)c(=O)cc23)cn1`, the concentration at 2 h in data set [4] came to 130 nM; in data set [10], 4.5 µM. Further, the AUC(0-inf) was 90.7 µM·h in [5] and 15.4 µM·h in data set [9]. In addition, the Cmax is 15.6 µM in [6], 1850 nM in data set [11] and 4.27 µM in data set [20]. In addition, in data set [7], the Vd stood at 1.6 L/kg. The remaining at 0.5 h in data set [1] was found to be 57%; in data set [2] it was 71%; in [3], 68%. The Kp at 2 h in data set [8] was found to be 0.49. In addition, in the data set with Rattus norvegicus, the AUC was 6.57 µM·h. This compound gave a half-life in data set [12] of 84 min. The Tmax in [13] and in data set [17] was 2 h each time. For the same compound, the figures for the Drug uptake in the data set with Brain [14] and with Brain [16] were 0.052 nmol/g and 2.2 nmol/g, respectively. This compound also displayed a clearance in data set [15] of 13 mL/min/kg. This compound showed a bioavailability in data set [18] of 87%. The compound also came in with a concentration at 24 h in [19] of 119 nM. Besides, the partition ratio (Kp) at 24 h in data set [21] stood at 0.43.

In the case of `CCO/N=C(/c1ccc(F)c(F)c1)c1ccc(CN2CCC3(CC2)OCc2cc(=O)n(C)cc23)cn1`, the remaining at 0.5 h in data set [1] is 74%; in [2], 84%; in data set [3] it was 77%.

As to `Fc1cc2c(cn1)C1(CCN(Cc3ccc(Oc4ccc(F)c(F)c4)cc3)CC1)OC2`, the remaining at 0.5 h is 3% in data set [1], 4% in data set [2] and 17% in data set [3].
